The record followed here is ChEMBL document CHEMBL5724558, “Image-based profiling of drug vulnerabilities in CRC organoids” (2024).

“And” between values parts separate entries of the source, which are not always exact repeats. Equal entries are not always repeated.

Common to all, as to format: functional, Homo sapiens
What all share (parameters): dose or concentration left out as unconfirmed

In assay [1] the test system is Colon cancer organoid. Briefly: Image-based profiling of donated chemical probes and chemogenomic kinase set in O06 CRC organoid. Image analysis is performed on the sum area metric, and the data were normalized to the DMSO control. After imaging the organoid viability is measured using the OneGloEX Luciferase Assay System. The normalized viability data and sum area are reported.

Assay [2] concerns Colon cancer organoid. The assay can be described thus: Image-based profiling of donated chemical probes and chemogenomic kinase set in O09 CRC organoid. Image analysis is performed on the sum area metric, and the data were normalized to the DMSO control. After imaging the organoid viability is measured using the OneGloEX Luciferase Assay System. The normalized viability data and sum area are reported.

In assay [3] the test system is Colon cancer organoid. The assay can be described thus: Image-based profiling of donated chemical probes and chemogenomic kinase set in O21 CRC organoid. Image analysis is performed on the sum area metric, and the data were normalized to the DMSO control. After imaging the organoid viability is measured using the OneGloEX Luciferase Assay System. The normalized viability data and sum area are reported.

Turning to `NS(=O)(=O)c1cc(NC(=O)Cc2ccccc2)ccc1Oc1cccc(Cl)c1` [BAY-1797], the “Cell Viability” value in assay [1] (Replication number 1) is 118.794% and 140.984%; in assay [1] (Replication number 2) it was 77.9849% and 83.6245%; in assay [2] (Replication number 1) it was 109.148% and 118.264%; in assay [2] (Replication number 2) it was 102.589% and 110.989%; in assay [3] (Replication number 1), 97.444% and 106.533%; in assay [3] (Replication number 2), 100.538% and 94.898%.
As for `CC1CCN(c2ccnc(NCc3cn(C)cn3)n2)CC1` [TP-040], the “Cell Viability” value is 114.457% and 102.441% in assay [1] (Replication number 1); 78.7525% and 90.5361% in assay [1] (Replication number 2); 164.974% and 118.043% in assay [2] (Replication number 1); 162.348% and 114.826% in assay [2] (Replication number 2); 98.573% and 105.41% in assay [3] (Replication number 1); 113.293% and 110.51% in assay [3] (Replication number 2).
As for `CCOC(=O)c1c(/C(C#N)=C\N)c2ccc(Cl)c(Cl)c2n1C`, the “Cell Viability” value in assay [1] (Replication number 1) is 68.8446% and 103.482%; in assay [1] (Replication number 2), 89.5184% and 120.135%; in assay [2] (Replication number 1), 79.2888% and 103.726%; in assay [2] (Replication number 2), 80.6301% and 101.308%; in assay [3] (Replication number 1) it was 124.932% and 127.137%; in assay [3] (Replication number 2), 116.619% and 130.014%.
On to `C[C@@H]1CCc2ncc(F)cc2[C@H]2CCCN2c2ccn3ncc(c3n2)C(=O)N1` [SELITRECTINIB], for which the “Cell Viability” value in assay [1] (Replication number 1) was 134.929% and 121.742%; in assay [1] (Replication number 2), 93.5037% and 107.969%; in assay [2] (Replication number 1), 111.995% and 102.727%; in assay [2] (Replication number 2) it was 91.1731% and 73.4267%; in assay [3] (Replication number 1) it was 119.212% and 110.383%; in assay [3] (Replication number 2) it was 103.521% and 97.8769%.
As for `Cc1cccc(-c2cnc3occ(-c4ccc(C(=O)O)c(C5CCCC5)c4)c3c2)c1`, the “Cell Viability” value is 91.6718% and 109.086% in assay [1] (Replication number 1); 100.62% and 106.871% in assay [1] (Replication number 2); 143.367% and 90.8211% in assay [2] (Replication number 1); 122.111% and 97.0079% in assay [2] (Replication number 2); 122.241% and 115.611% in assay [3] (Replication number 1); 124.793% and 91.2416% in assay [3] (Replication number 2).
Consider `CN(C)C(=O)N1CC[C@H](NC2=Nc3cc(F)ccc3N(CC(F)F)c3ccc(Cl)cc32)C1`, for which the “Cell Viability” value in assay [1] (Replication number 1) was 112.42% and 113.793%; in assay [1] (Replication number 2), 60.2365% and 60.6343%; in assay [2] (Replication number 1), 91.7013% and 91.0686%; in assay [2] (Replication number 2), 138.489% and 113.836%; in assay [3] (Replication number 1), 101.162% and 105.976%; in assay [3] (Replication number 2), 96.6139% and 109.943%.
Take `O=C1NC(c2ccccn2)Sc2ccccc21` (centres undefined) [BTZO-4]: the “Cell Viability” value was 80.1051% and 90.1639% in assay [1] (Replication number 1); 101.963% and 109.92% in assay [1] (Replication number 2); 89.6903% and 76.6923% in assay [2] (Replication number 1); 179.626% and 125.593% in assay [2] (Replication number 2); 96.9189% and 94.3079% in assay [3] (Replication number 1); 102.382% and 84.6939% in assay [3] (Replication number 2).
As for `COc1cc2c(cc1OCCCN1CCCC1)N=C(N)C21CCC1`, the “Cell Viability” value in assay [1] (Replication number 1) was 110.816% and 131.678%; in assay [1] (Replication number 2), 106.27% and 117.339%; in assay [2] (Replication number 1), 70.9946% and 111.515%; in assay [2] (Replication number 2) it was 77.9538% and 123.155%; in assay [3] (Replication number 1), 92.2277% and 112.28%; in assay [3] (Replication number 2), 68.723% and 97.1957%.
As to `C[C@@H]1CC(=O)Nc2cccc(-c3ccc4c(c3)c(-c3cnn(C)c3)nn4C)c2N1`, the “Cell Viability” value in assay [1] (Replication number 1) is 59.3391% and 89.8792%; in assay [1] (Replication number 2), 80.6716% and 83.4041%; in assay [2] (Replication number 1), 75.8759% and 56.1051%; in assay [2] (Replication number 2), 135.457% and 81.8182%; in assay [3] (Replication number 1), 80.8439% and 121.097%; in assay [3] (Replication number 2), 82.2884% and 110.621%.
